Laboratory results taken from patent publication US5474921A, “Expression and purification of phosphoinositide-specific phospholipase C-γ” (Merck & Co., Inc., priority 1993, dated 1995).

T1: PLCγ1 (Rattus norvegicus, UniProt P10686)
T1 construct: made in house; host or cells: E. coli BL21 (DE3)
T1 sequence (P10686 with tags, fused parts or gaps limits assumed): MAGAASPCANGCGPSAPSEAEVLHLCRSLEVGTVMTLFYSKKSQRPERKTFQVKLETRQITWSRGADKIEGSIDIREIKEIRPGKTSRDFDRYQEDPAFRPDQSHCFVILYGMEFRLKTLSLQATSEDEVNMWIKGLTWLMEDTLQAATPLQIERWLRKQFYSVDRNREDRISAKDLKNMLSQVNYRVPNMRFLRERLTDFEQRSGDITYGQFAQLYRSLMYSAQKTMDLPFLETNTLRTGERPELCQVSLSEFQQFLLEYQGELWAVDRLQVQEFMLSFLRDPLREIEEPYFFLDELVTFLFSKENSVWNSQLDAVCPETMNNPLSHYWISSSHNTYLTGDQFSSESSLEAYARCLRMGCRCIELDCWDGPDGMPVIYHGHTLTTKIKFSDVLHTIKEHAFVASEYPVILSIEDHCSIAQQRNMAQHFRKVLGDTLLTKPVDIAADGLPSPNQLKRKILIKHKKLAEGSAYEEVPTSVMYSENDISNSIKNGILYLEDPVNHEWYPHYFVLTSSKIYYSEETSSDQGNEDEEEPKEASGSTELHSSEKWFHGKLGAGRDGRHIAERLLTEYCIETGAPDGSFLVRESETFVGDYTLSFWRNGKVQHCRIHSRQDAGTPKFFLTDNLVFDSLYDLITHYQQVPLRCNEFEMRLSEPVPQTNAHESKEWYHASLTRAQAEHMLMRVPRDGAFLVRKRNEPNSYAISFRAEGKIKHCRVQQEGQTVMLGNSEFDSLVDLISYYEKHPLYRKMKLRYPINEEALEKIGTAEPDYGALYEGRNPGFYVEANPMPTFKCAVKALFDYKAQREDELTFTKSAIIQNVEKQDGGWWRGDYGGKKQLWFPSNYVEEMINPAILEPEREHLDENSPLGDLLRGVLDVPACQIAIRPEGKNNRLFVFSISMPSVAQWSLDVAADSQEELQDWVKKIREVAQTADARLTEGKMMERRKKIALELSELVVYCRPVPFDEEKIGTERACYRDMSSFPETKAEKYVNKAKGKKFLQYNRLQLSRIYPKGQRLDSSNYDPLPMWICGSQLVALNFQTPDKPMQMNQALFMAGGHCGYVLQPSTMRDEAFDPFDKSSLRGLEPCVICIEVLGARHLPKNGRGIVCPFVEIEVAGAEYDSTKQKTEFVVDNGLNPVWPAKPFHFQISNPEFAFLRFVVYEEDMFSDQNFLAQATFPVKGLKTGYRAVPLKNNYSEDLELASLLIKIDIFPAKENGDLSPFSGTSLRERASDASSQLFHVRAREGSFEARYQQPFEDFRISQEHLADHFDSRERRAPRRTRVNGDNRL


What was measured:
PLCγ1 = target: T1, PLCγ1; experiment: Assay of inhibitory activity of compounds against PLCγ1 (hydrolysis of [3H]-phosphatidyl inositol by purified bacterially expressed PLCγ1); format: biochemical; details: 30° C., pH 7.5, 0.1% deoxycholate, compound included prior to addition of enzyme
Text: Subcloning of the PLCγ1 Coding Sequence. Rat brain cDNA is synthesized using rat brain poly(A)RNA as template by literature protocol (Sambrook, J. et al., Molecular Cloning: A Laboratory Manual, Cold Spring Harbor Laboratory Press, Cold Spring Harbor, N.Y.). From the published cDNA sequence of rat brain PLCγ1 (Suh, P. -G., Ryu, S. H., Moon, K. H., Suh, H. W., & Rhee, S. G. (1988) Proc. Natl. Acad. Sci. USA 85, 5419-5423), PCR primers, one which contains a BamHI restriction site upstream of the sequence complementary to the 5' end of the PLCγ gene (primer 01 ), and the other one which contains a HindIII site downstream of the 3' end of the PLCγ gene (primer 04), were synthesized. Carrying out the PCR using these primers (01 and 04) with the above mentioned rat brain eDNA as template, a DNA fragment with the entire rat brain PLCγ1 coding sequence, flanked by a 5' BamHI site and a 3' HindIII site, is generated. This BarnHI-HindIII fragment containing the coding sequence of PLCγ1 was subcloned into pBSII(S/K)+, generating pPLCl. The rest of the manipulations were accomplished using PCR to generate the appropriate DNA fragment. The 5' end of the PLCγ1 gene was altered to include a new BarnHi site and a sequence that would eventually translationally couple the expression of PLCγ to the .phi.10 gene of the pT5T vector as described by Eisenberg, S. P., Evans, R. J., Arend, W. P., Verderber, E., Brewer, M. T., Hannum, C. H., & Thompson, R. C. (1990) Nature(London) 343,341-346.
Using the isolated mutant fragments from each of these PCRs together as template, the final PCR was carried out using primers 03-06 which yielded, after restriction enzyme digestion, a SphI and HindIll fragment which was used to replace the analogous fragment in pPLC2. The resulting plasmid, pPLC3, contained the coding sequence of the PLCγ1 gene on a BarnHI-HindlII fragment with both the sequence encoding the Glu-Glu-Phe tag at the 3' end as well as the changed AGG codons. […] (SEQ.ID.NO.: 3) Finally, the BarnHI-HindIII fragment from pPLC3 was transferred into the BamHI-HindIII site of pTST, generating pTST-PLC4. This construct was used to produce PLCγ1 (containing the Glu-Glu-Phe epitope tag at the C-terminus) translationally coupled to the expression of .phi.10 protein in the pT5T vector.
Expression and Purification of PLCγ1. To express PLCγ1 the plasmid pT5T-PLC4 was transformed into E. coli BL21 (DE3). The transformed cells were grown in LB media containing ampicillin (100 μg/ml) and tetracycline (12.5 μg/ml) at 20° C. until the optical density of the cultures at 550 nm was equal to 0.8. This transformed bacterial cell has been deposited with the ATCC and has been assigned the number ATCC 69421. Expression of PLCγ1 was then induced by addition of isopropyl β-D-thiogalactopyranoside (0.5 mM final concentration) to the cultures. After growing for another 6 hours the cells were harvested and PLCγ1 was purified as described below. PLCγ1 was isolated from E. coli by resuspending a cell pellet in standard buffer, 50 mM Tris-C1 pH 8.0, 2 mM MgCl2, 10 mM CaCl2, 1 mM EGTA, 5 mM DTT, 5 mM streptomycin sulfate, 1 mM PMSF, 2 μg/ml leupeptin, 2 μg/ml antipain, 10 μg/ml aprotinin (approximately 5 g wet packed cells/10 ml buffer). The resuspended cells were broken by sonication and the cell debris pelleted by centrifugation at 30,000×g at 4° C. for 30 minutes. The soluble fraction was applied at a flow rate of approximately 0.5 ml/min. to a 2 ml column of the monoclonal antibody YL 1/2(4 mg antibody/ml resin) coupled to cyanogen bromide activated Sepharose. The YL1/2 Sepharose column, which binds the epitope tag Glu-Glu-Phe had previously been equilibrated with standard buffer. After loading the protein onto the column, the column was washed with standard buffer (100 mls) PLCγ1 was eluted with 3×5ml 5 mM Asp-Phe dipeptide (Sigma) in standard buffer. The column was regenerated by washing with phosphate buffered saline (PBS)+2 M NaCl and then stored in PBS +0.02% NaN3 (wt./vol). […]

platelets = details: background statement; cited from earlier work
phospholipase C = details: background statement; cited from earlier work
macrophages = details: background statement; cited from earlier work
[1] = Assay of purified PLCγ1 activity (hydrolysis of [3H]-phosphatidyl inositol); format: biochemical; details: 30° C., 50 mM HEPES pH 7.5; bacterially expressed vs naturally derived enzyme in the same assay
Text: Reactions were never allowed to proceed to more than 10% completion based on the limiting substrate.

Row | Molecule | IC50 (PLCγ1; Table 1) [µM] | further results
1 | O=P(O)(O)C(O)c1cccc(Oc2ccc(Cl)c(Cl)c2)c1 (stereo not drawn) [drawing 1: R3=H, R4=Cl, R5=Cl] | 56 | 
2 | c1ccc2c(c1)Nc1ccccc1S2 [phenothiazine] |  | inhibition of stimulated release of prostaglandins from platelets (platelets): inhibit; inhibition of phospholipase C (phospholipase C): inhibited; inhibition of stimulated release of arachidonic acid from macrophages (macrophages): inhibit
3 | COc1ccc(Oc2cccc(C(O)P(=O)(O)O)c2)cc1 (stereo not drawn) [drawing 1: R3=H, R4=H, R5=OCH3] | 7 | 
4 | O=P(O)(O)C(O)c1cccc(Oc2ccc(Cl)cc2)c1 (stereo not drawn) [drawing 1: R3=H, R4=H, R5=Cl] | 36 | 
5 | COc1cccc(Oc2ccc(C(O)P(=O)(O)O)cc2)c1 (stereo not drawn) [drawing 2: R3=H, R4=OCH3, R5=H] |  | IC50 (PLCγ1; Table 2): 8 µM
6 | O=P(O)(O)C(O)c1cccc(Oc2cccc(Cl)c2)c1 (stereo not drawn) [drawing 1: R3=H, R4=Cl, R5=H] | 10 | 
7 | O=P(O)(O)C(O)c1cccc(Oc2ccccc2Cl)c1 (stereo not drawn) [drawing 1: R3=Cl, R4=H, R5=H] | 17 | 
8 | O=P(O)(O)C(O)c1ccc(Oc2cccc(Cl)c2)cc1 (stereo not drawn) [drawing 2: R3=H, R4=Cl, R5=H] |  | IC50 (PLCγ1; Table 2): 5 µM
9 | CCc1cccc(Oc2ccc(C(O)P(=O)(O)O)cc2)c1 (stereo not drawn) [drawing 2: R3=H, R4=CH2CH3, R5=H] |  | IC50 (PLCγ1; Table 2): 37 µM
10 | Cc1ccc(Oc2cccc(C(O)P(=O)(O)O)c2)cc1 (stereo not drawn) [drawing 1: R3=H, R4=H, R5=CH3] | 13 | 
11 | O=P(O)(O)C(O)c1cccc(Oc2ccc(O)cc2)c1 (stereo not drawn) [drawing 1: R3=H, R4=H, R5=OH] | 3 | 
12 | O=P(O)(O)C(O)c1cccc(Oc2ccccc2)c1 (stereo not drawn) [drawing 1: R3=H, R4=H, R5=H] | 190 | 
13 | bacterially expressed PLCγ1: rat brain PLCγ1 with C-terminal Glu-Glu-Phe epitope tag, expressed in E. coli BL21 (DE3) from plasmid pT5T-PLC4 (protein, UniProt P10686 2-1290, looked up, C-terminal Glu-Glu-Phe epitope tag) 1-phosphatidylinositol …: AGVGTPCANGCGPSAPSEAEVLHLCRSLEVGTVMTLFYSKKSQRPERKTFQVKLETRQITWSRGADKIEGSIDIREIKEIRPGKTSRDFDRYQEDPAFRPDQSHCFVILYGMEFRLKTLSLQATSEDEVNMWIKGLTWLMEDTLQAATPLQIERWLRKQFYSVDRNREDRISAKDLKNMLSQVNYRVPNMRFLRERLTDFEQRSGDITYGQFAQLYRSLMYSAQKTMDLPFLETNTLRTGERPELCQVSLSEFQQFLLEYQGELWAVDRLQVQEFMLSFLRDPLREIEEPYFFLDELVTFLFSKENSVWNSQLDAVCPETMNNPLSHYWISSSHNTYLTGDQFSSESSLEAYARCLRMGCRCIELDCWDGPDGMPVIYHGHTLTTKIKFSDVLHTIKEHAFVASEYPVILSIEDHCSIAQQRNMAQHFRKVLGDTLLTKPVDIAADGLPSPNQLKRKILIKHKKLAEGSAYEEVPTSVMYSENDISNSIKNGILYLEDPVNHEWYPHYFVLTSSKIYYSEETSSDQGNEDEEEPKEASGSTELHSSEKWFHGKLGAGRDGRHIAERLLTEYCIETGAPDGSFLVRESETFVGDYTLSFWRNGKVQHCRIHSRQDAGTPKFFLTDNLVFDSLYDLITHYQQVPLRCNEFEMRLSEPVPQTNAHESKEWYHASLTRAQAEHMLMRVPRDGAFLVRKRNEPNSYAISFRAEGKIKHCRVQQEGQTVMLGNSEFDSLVDLISYYEKHPLYRKMKLRYPINEEALEKIGTAEPDYGALYEGRNPGFYVEANPMPTFKCAVKALFDYKAQREDELTFTKSAIIQNVEKQDGGWWRGDYGGKKQLWFPSNYVEEMINPAILEPEREHLDENSPLGDLLRGVLDVPACQIAIRPEGKNNRLFVFSISMPSVAQWSLDVAADSQEELQDWVKKIREVAQTADARLTEGKMMERRKKIALELSELVVYCRPVPFDEEKIGTERACYRDMSSFPETKAEKYVNKAKGKKFLQYNRLQLSRIYPKGQRLDSSNYDPLPMWICGSQLVALNFQTPDKPMQMNQALFMAGGHCGYVLQPSTMRDEAFDPFDKSSLRGLEPCVICIEVLGARHLPKNGRGIVCPFVEIEVAGAEYDSTKQKTEFVVDNGLNPVWPAKPFHFQISNPEFAFLRFVVYEEDMFSDQNFLAQATFPVKGLKTGYRAVPLKNNYSEDLELASLLIKIDIFPAKENGDLSPFSGTSLRERASDASSQLFHVRAREGSFEARYQQPFEDFRISQEHLADHFDSRERRAPRRTRVNGDNRL |  | specific activity [1]: 13.8 µmol/min/mg
